Measurements from patent US9334289B2, “Cephem compound having catechol or pseudo-catechol structure” (SHIONOGI & CO., LTD., priority 2011, dated 2016).
In brackets after ≈: the same amount, converted by molar mass.

Experiments:
Experiment in all cases: MIC, CLSI broth microdilution, Test Example 2
Format in all cases: cell-based
E. coli SR01337 = conditions: Escherichia coli, SR01337; TEM-1 ESBL producing strain; cation-adjusted Iso-Sensitest broth containing human Apo-transferrin; 5×10^5 cfu/mL; read-out: Minimum Inhibitory Concentration (MIC) E. coli SR01337
Experimental: (§1) Measurement of Minimum Inhibitory Concentration (MIC: μg/mL) was conducted according to CLSI (Clinical and Laboratory Standards Institute) method, and the amount of bacteria for inoculation was 5×10^5 cfu/mL, and cation-adjusted Iso-Sensitest broth containing human Apo-transferrin was used as a test medium, and the experiment was conducted using broth microdilution method.

P. aeruginosa SR01335 = conditions: Pseudomonas aeruginosa, SR01335; VIM-1 like MBL producing strain (carbapenem resistance strain); cation-adjusted Iso-Sensitest broth containing human Apo-transferrin; 5×10^5 cfu/mL; read-out: Minimum Inhibitory Concentration (MIC) P. aeruginosa SR01335
Experimental: as §1

P. aeruginosa SR01332 = conditions: Pseudomonas aeruginosa, SR01332; VIM-11 MBL producing strain (carbapenem resistance strain); cation-adjusted Iso-Sensitest broth containing human Apo-transferrin; 5×10^5 cfu/mL; read-out: Minimum Inhibitory Concentration (MIC) P. aeruginosa SR01332
Experimental: as §1

E. coli ATCCBAA-200 = conditions: Escherichia coli, ATCCBAA200; SHV-4 ESBL producing strain; cation-adjusted Iso-Sensitest broth containing human Apo-transferrin; 5×10^5 cfu/mL; read-out: Minimum Inhibitory Concentration (MIC) E. coli ATCC BAA-200
Experimental: as §1

A. baumannii SR01331 = conditions: Acinetobacter baumannii, SR01331; PER-1, OXA-23.51 ESBL- & OXA-type carbapenemase producing strain; cation-adjusted Iso-Sensitest broth containing human Apo-transferrin; 5×10^5 cfu/mL; read-out: Minimum Inhibitory Concentration (MIC) A. baumannii SR01331
Experimental: as §1

E. coli ATCCBAA-196 = conditions: Escherichia coli, ATCCBAA196; TEM-10 ESBL producing strain; cation-adjusted Iso-Sensitest broth containing human Apo-transferrin; 5×10^5 cfu/mL; read-out: Minimum Inhibitory Concentration (MIC) E. coli ATCC BAA-196
Experimental: as §1

E. cloacae NCTC13464 = conditions: Enterobacter cloacae, NCTC13464; CTX-M group 9 ESBL producing strain; cation-adjusted Iso-Sensitest broth containing human Apo-transferrin; 5×10^5 cfu/mL; read-out: Minimum Inhibitory Concentration (MIC) E. cloacae NCTC 13464
Experimental: as §1

K. pneumoniae ATCC700603 = conditions: Klebsiella pneumoniae, ATCC700603; SHV18 ESBL producing strain; cation-adjusted Iso-Sensitest broth containing human Apo-transferrin; 5×10^5 cfu/mL; read-out: Minimum Inhibitory Concentration (MIC) K. pneumoniae ATCC 700603
Experimental: as §1

Row | MIC (E. coli SR01337) [µg/mL] | MIC (P. aeruginosa SR01335) [µg/mL] | MIC (P. aeruginosa SR01332) [µg/mL] | MIC (E. coli ATCCBAA-200) [µg/mL] | MIC (A. baumannii SR01331) [µg/mL] | MIC (E. coli ATCCBAA-196) [µg/mL] | MIC (E. cloacae NCTC13464) [µg/mL] | MIC (K. pneumoniae ATCC700603) [µg/mL] | Structure (SMILES)
1 | ≤ 0.031 | 1 (≈ 1.23 µM) | 2 (≈ 2.46 µM) | 0.063 (≈ 0.0773 µM) | 0.25 (≈ 0.307 µM) | ≤ 0.031 | 0.063 (≈ 0.0773 µM) | 0.125 (≈ 0.153 µM) | C[N+](C)(CCNC(=O)c1ccc(O)c(O)c1Cl)CC1=C(c2nnn[nH]2)N2C(=O)[C@@H](NC(=O)/C(=N\O[C@@H](CC(=O)O)C(=O)[O-])c3nc(N)sc3Cl)[C@H]2SC1 [Compound I-101]
2 | ≤ 0.031 | 1 (≈ 1.27 µM) | 4 (≈ 5.06 µM) | 0.063 (≈ 0.0798 µM) | 0.25 (≈ 0.317 µM) | ≤ 0.031 | 0.063 (≈ 0.0798 µM) | ≤ 0.031 | Nc1nc(/C(=N/O[C@@H](CC(=O)O)C(=O)[O-])C(=O)N[C@@H]2C(=O)N3C(c4nnn[nH]4)=C(C[N+]4(CCNC(=O)c5ccc(O)c(O)c5F)CCCC4)CS[C@H]23)cs1 [Compound I-102]
3 | ≤ 0.031 | 1 (≈ 1.21 µM) | 2 (≈ 2.43 µM) | 0.125 (≈ 0.152 µM) | 0.25 (≈ 0.303 µM) | ≤ 0.031 | 0.125 (≈ 0.152 µM) | 0.5 (≈ 0.607 µM) | Nc1nc(/C(=N/O[C@@H](CC(=O)O)C(=O)[O-])C(=O)N[C@@H]2C(=O)N3C(c4nnn[nH]4)=C(C[N+]4(CCNC(=O)c5ccc(O)c(O)c5F)CCCC4)CS[C@H]23)c(Cl)s1 [Compound I-103]
4 | ≤ 0.031 | 2 (≈ 2.52 µM) | 4 (≈ 5.04 µM) | 0.063 (≈ 0.0793 µM) | 0.5 (≈ 0.63 µM) | ≤ 0.031 | 0.125 (≈ 0.157 µM) | 0.125 (≈ 0.157 µM) | CC(C)(O/N=C(\C(=O)N[C@@H]1C(=O)N2C(c3nnn[nH]3)=C(C[N+]3(CCNC(=O)c4cc(O)c(O)c(F)c4)CCCC3)CS[C@H]12)c1nc(N)sc1Cl)C(=O)[O-] [Compound I-104]
5 | ≤ 0.031 | 2 (≈ 2.43 µM) | 4 (≈ 4.86 µM) | 0.25 (≈ 0.304 µM) | 2 (≈ 2.43 µM) | 0.063 (≈ 0.0766 µM) | 0.25 (≈ 0.304 µM) | 0.25 (≈ 0.304 µM) | CC(C)(O/N=C(\C(=O)N[C@@H]1C(=O)N2C(c3nnn[nH]3)=C(C[N@+]34CCC[C@H]3CN(C(=O)c3ccc(O)c(O)c3Cl)CC4)CS[C@H]12)c1nc(N)sc1Cl)C(=O)[O-] [Compound I-105]
6 | ≤ 0.031 | 1 (≈ 1.26 µM) | 4 (≈ 5.04 µM) | 0.063 (≈ 0.0793 µM) | 0.5 (≈ 0.63 µM) | ≤ 0.031 | 0.063 (≈ 0.0793 µM) | ≤ 0.031 | CC(C)(O/N=C(\C(=O)N[C@@H]1C(=O)N2C(c3nnn[nH]3)=C(C[N+]3(CCNC(=O)c4ccc(O)c(O)c4F)CCCC3)CS[C@H]12)c1nc(N)sc1Cl)C(=O)[O-] [Compound I-106]
7 | 0.063 (≈ 0.0828 µM) | 2 (≈ 2.63 µM) | 2 (≈ 2.63 µM) | 0.5 (≈ 0.657 µM) | 0.5 (≈ 0.657 µM) | 0.25 (≈ 0.329 µM) | 0.063 (≈ 0.0828 µM) | 0.125 (≈ 0.164 µM) | CC(C)(O/N=C(\C(=O)N[C@@H]1C(=O)N2C(c3nnn[nH]3)=C(C[N+]3(CCNC(=O)c4ccc(O)c(O)c4F)CCCC3)CS[C@H]12)c1nsc(N)n1)C(=O)[O-] [Compound I-107]
8 | ≤ 0.031 | 2 (≈ 2.63 µM) | 2 (≈ 2.63 µM) | 0.25 (≈ 0.329 µM) | 1 (≈ 1.31 µM) | 0.25 (≈ 0.329 µM) | 0.125 (≈ 0.164 µM) | 0.25 (≈ 0.329 µM) | CC(C)(O/N=C(\C(=O)N[C@@H]1C(=O)N2C(c3nnn[nH]3)=C(C[N+]3(CCNC(=O)c4cc(O)c(O)c(F)c4)CCCC3)CS[C@H]12)c1nsc(N)n1)C(=O)[O-] [Compound I-108]
9 | ≤ 0.031 | 1 | 0.5 | 1 | 0.5 | 0.5 | 0.125 | 0.25 | Cc1cc2cc(O)c(O)cc2c[n+]1CC1=C(c2nnn[nH]2)N2C(=O)[C@@H](NC(=O)/C(=N\OC(C)(C)C(=O)O)c3nsc(N)n3)[C@H]2SC1.[Na+] [Compound I-109]
10 | ≤ 0.031 | 0.25 | 0.5 | 0.25 | 0.125 | 0.125 | ≤ 0.031 | 0.125 | CC(C)(O/N=C(\C(=O)N[C@@H]1C(=O)N2C(c3nnn[n-]3)=C(C[n+]3ccc4cc(O)c(O)cc4c3)CS[C@H]12)c1nsc(N)n1)C(=O)[O-].[Na+] [Compound I-113]
11 | ≤ 0.031 | 1 | 1 | 1 | 0.5 | 0.5 | 0.25 | 1 | CC(C)(O/N=C(\C(=O)N[C@@H]1C(=O)N2C(c3nnn[n-]3)=C(C[n+]3ccc(CNC(=O)c4ccc(O)c(O)c4Cl)cc3)CS[C@H]12)c1nsc(N)n1)C(=O)[O-].[Na+] [Compound I-114]
12 | ≤ 0.031 | 1 | 2 | 1 | 0.5 | 1 | 1 | 0.5 | CC(C)(O/N=C(\C(=O)N[C@@H]1C(=O)N2C(c3nnn[nH]3)=C(C[n+]3cccc4c3CCCN4C(=O)c3ccc(O)c(O)c3Cl)CS[C@H]12)c1nsc(N)n1)C(=O)O.[Na+] [Compound I-115]
13 | ≤ 0.031 | 1 | 2 | 1 | 0.25 | 0.5 | ≤ 0.031 | 0.25 | CC(C)(O/N=C(\C(=O)N[C@@H]1C(=O)N2C(c3nnn[n-]3)=C(C[n+]3ccc(NC(=O)c4ccc(O)c(O)c4Cl)cc3)CS[C@H]12)c1nsc(N)n1)C(=O)[O-].[Na+] [Compound I-116]
14 | ≤ 0.031 | 1 (≈ 1.26 µM) | 8 (≈ 10.1 µM) | 0.25 (≈ 0.316 µM) | 0.25 (≈ 0.316 µM) | 0.25 (≈ 0.316 µM) | 0.25 (≈ 0.316 µM) | 0.063 (≈ 0.0796 µM) | CC(C)(O/N=C(\C(=O)N[C@@H]1C(=O)N2C(c3nnn[nH]3)=C(C[N+]3(CCNC(=O)c4ccc(O)c(O)c4Cl)CCCCC3)CS[C@H]12)c1nsc(N)n1)C(=O)[O-] [Compound I-118]
15 | ≤ 0.031 | 2 (≈ 2.57 µM) | 4 (≈ 5.15 µM) | 0.5 (≈ 0.643 µM) | 0.5 (≈ 0.643 µM) | 0.5 (≈ 0.643 µM) | 0.125 (≈ 0.161 µM) | 0.25 (≈ 0.322 µM) | CC(C)(O/N=C(\C(=O)N[C@@H]1C(=O)N2C(c3nnn[nH]3)=C(C[N+]3(CCNC(=O)c4cc(O)c(O)c(Cl)c4)CCCC3)CS[C@H]12)c1nsc(N)n1)C(=O)[O-] [Compound I-119]
16 | ≤ 0.031 | 0.5 | 1 | ≤ 0.031 | 0.125 | ≤ 0.031 | 0.063 | ≤ 0.031 | Cc1cc2cc(O)c(O)cc2c[n+]1CC1=C(c2nnn[n-]2)N2C(=O)[C@@H](NC(=O)/C(=N\OC(C)(C)C(=O)[O-])c3csc(N)n3)[C@H]2SC1.[Na+] [Compound I-121]
17 | ≤ 0.031 | 1 (≈ 1.27 µM) | 4 (≈ 5.07 µM) | 0.25 (≈ 0.317 µM) | 0.25 (≈ 0.317 µM) | 0.125 (≈ 0.158 µM) | 0.063 (≈ 0.0798 µM) | 0.125 (≈ 0.158 µM) | CC(C)(O/N=C(\C(=O)N[C@@H]1C(=O)N2C(c3nnn[nH]3)=C(C[N+]34CCCC3CN(C(=O)c3cc(O)c(O)c(Cl)c3)CC4)CS[C@H]12)c1nsc(N)n1)C(=O)[O-] (stereo partly drawn) [Compound I-122]

Row | Structure (SMILES) | MIC (E. coli SR01337) [µg/mL] | MIC (P. aeruginosa SR01335) [µg/mL] | MIC (P. aeruginosa SR01332) [µg/mL] | MIC (E. coli ATCCBAA-200) [µg/mL] | MIC (A. baumannii SR01331) [µg/mL] | MIC (E. coli ATCCBAA-196) [µg/mL] | MIC (E. cloacae NCTC13464) [µg/mL] | MIC (K. pneumoniae ATCC700603) [µg/mL]
18 | CC(C)(O/N=C(\C(=O)N[C@@H]1C(=O)N2C(c3nnn[nH]3)=C(C[N+]3(C)[C@@H]4CC[C@H]3C[C@@H](NC(=O)c3cc(O)c(O)c(F)c3)C4)CS[C@H]12)c1nsc(N)n1)C(=O)O.[Na+] (stereo partly drawn) [Compound I-117] | 0.063 | 2 | 4 | 1 | 0.5 | 1 | 0.5 | 0.25
